From the supplement of paper PMC5908809

What was measured:
[1] = test system: normal primary NK cells, pool 3 (3 donors) (IL-2 2.5 ng/mL); assay: percent inhibition of viability; higher = more inhibition; conditions: 72 h
IMC-1 (IL-2 20 ng/mL) [2] = assay: as above; conditions: 72 h
[3] = test system: normal primary NK cells, pool 1 (3 donors) (IL-2 2.5 ng/mL); assay: as above; conditions: 72 h
KHYG-1 (IL-2 2.5 ng/mL) [4] = assay: as above; conditions: 72 h
NK-YS (IL-2 2.5 ng/mL) [5] = assay: as above; conditions: 72 h
DERL-7 (IL-2 2.5 ng/mL) [6] = assay: as above; conditions: 72 h
[7] = test system: normal primary NK cells, pool 1 (3 donors), resting (IL-2 0 ng/mL); assay: as above; conditions: 72 h
KAI3 (IL-2 2.5 ng/mL) [8] = assay: as above; conditions: 72 h
NK-92 (IL-2 2.5 ng/mL) [9] = assay: as above; conditions: 72 h
YT (IL-2 2.5 ng/mL) [10] = assay: as above; conditions: 72 h
[11] = test system: normal primary NK cells, pool 2 (3 donors) (IL-2 2.5 ng/mL); assay: as above; conditions: 72 h
NKL (IL-2 2.5 ng/mL) [12] = assay: as above; conditions: 72 h
SNK-6 (IL-2 2.5 ng/mL) [13] = assay: as above; conditions: 72 h
[14] = test system: normal NK cells expanded with K562-aAPC; assay: drug sensitivity score (DSS) (DSS units); higher = more sensitive; extreme values may be limits of the assay; conditions: 72 h; IL-2 2.5 ng/mL
Method: (§1)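 Drug sensitivity and resistance testing on K562-aAPC-expanded normal NK cells: 5 concentrations (10-fold steps over a 10,000-fold range), 72 h at 37 °C, viability by CellTiter-Glo normalised to DMSO and benzethonium chloride controls; DSS from the fitted curve.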

[15] = test system: normal NK cells expanded with K562-aAPC; assay: percent inhibition of viability; higher = more inhibition; conditions: 72 h, IL-2 2.5 ng/mL
Method: as §1

[16] = test system: normal primary NK cells, pool 3 (3 donors) (IL-2 2.5 ng/mL); assay: drug sensitivity score (DSS) (DSS units); higher = more sensitive; extreme values may be limits of the assay; conditions: 72 h
IMC-1 (IL-2 20 ng/mL) [17] = assay: as above; conditions: 72 h
[18] = test system: normal primary NK cells, pool 1 (3 donors) (IL-2 2.5 ng/mL); assay: as above; conditions: 72 h
KHYG-1 (IL-2 2.5 ng/mL) [19] = assay: as above; conditions: 72 h
NK-YS (IL-2 2.5 ng/mL) [20] = assay: as above; conditions: 72 h
DERL-7 (IL-2 2.5 ng/mL) [21] = assay: as above; conditions: 72 h
[22] = test system: normal primary NK cells, pool 1 (3 donors), resting (IL-2 0 ng/mL); assay: as above; conditions: 72 h
KAI3 (IL-2 2.5 ng/mL) [23] = assay: as above; conditions: 72 h
NK-92 (IL-2 2.5 ng/mL) [24] = assay: as above; conditions: 72 h
YT (IL-2 2.5 ng/mL) [25] = assay: as above; conditions: 72 h
[26] = test system: normal primary NK cells, pool 2 (3 donors) (IL-2 2.5 ng/mL); assay: as above; conditions: 72 h
NKL (IL-2 2.5 ng/mL) [27] = assay: as above; conditions: 72 h
SNK-6 (IL-2 2.5 ng/mL) [28] = assay: as above; conditions: 72 h

CCN(CC)CCOc1ccc(C(=C(Cl)c2ccccc2)c2ccccc2)cc1 [Clomifene] (max concentration tested 10000 nM)
percent inhibition of viability [%]
Conditions | 1 nM | 10 nM | 100 nM | 1000 nM | 10000 nM
DERL-7 (IL-2 2.5 ng/mL) [6] | 4.06 | 0.91 | 9.39 | 20.4 | 79.7
IMC-1 (IL-2 20 ng/mL) [2] | -0.71 | -1.19 | 4.94 | 7.46 | 81.3
KAI3 (IL-2 2.5 ng/mL) [8] | 3.86 | 7.81 | 10.3 | 17.6 | 99.2
KHYG-1 (IL-2 2.5 ng/mL) [4] | 0.74 | -4.89 | 7.01 | 8.03 | 98
NK-92 (IL-2 2.5 ng/mL) [9] | -3.93 | -4.07 | 20.1 | 22.8 | 99.2
NK-YS (IL-2 2.5 ng/mL) [5] | -0.14 | 0.6 | 4.95 | 5.57 | 51.9
NKL (IL-2 2.5 ng/mL) [12] | 9.73 | -5.45 | 18.5 | 9.46 | 89.1
SNK-6 (IL-2 2.5 ng/mL) [13] | 23.4 | 4.68 | 23.5 | 22.9 | 96.8
YT (IL-2 2.5 ng/mL) [10] | 2.71 | -4.92 | 7.54 | 1.85 | 97.5
[1] | 2.17 | 1.82 | -1.1 | 13.6 | 53.4
[3] | -14.7 | -1.65 | -8.5 | 6.72 | 89.3
[7] | -1.08 | 10.5 | -7.5 | 11 | 90.7
[11] | -3.18 | -2.06 | -0.72 | 14.9 | 80.9
[15] | -4.27 | -4.95 | 6.21 | 5.94 | 49.9

Conditions | drug sensitivity score
DERL-7 (IL-2 2.5 ng/mL) [21] | 7.34
IMC-1 (IL-2 20 ng/mL) [17] | 5.71
KAI3 (IL-2 2.5 ng/mL) [23] | 8.38
KHYG-1 (IL-2 2.5 ng/mL) [19] | 6.7
NK-92 (IL-2 2.5 ng/mL) [24] | 8.7
NK-YS (IL-2 2.5 ng/mL) [20] | 3.68
NKL (IL-2 2.5 ng/mL) [27] | 6.51
SNK-6 (IL-2 2.5 ng/mL) [28] | 8.37
YT (IL-2 2.5 ng/mL) [25] | 5.67
[14] | 3.63
[16] | 4.97
[18] | 5.98
[22] | 6.86
[26] | 6.93

Nc1nc(OCc2cc(Br)cs2)c2[nH]cnc2n1 [Lomeguatrib] (max concentration tested 10000 nM)
percent inhibition of viability [%]
Conditions | 1 nM | 10 nM | 100 nM | 1000 nM | 10000 nM
DERL-7 (IL-2 2.5 ng/mL) [6] | 4.42 | 1.17 | 2.11 | 0.21 | 29.9
IMC-1 (IL-2 20 ng/mL) [2] | -11.5 | -6.71 | -6.4 | -6.2 | 8.26
KAI3 (IL-2 2.5 ng/mL) [8] | 3.07 | -2.1 | -3 | 0.64 | 24.2
KHYG-1 (IL-2 2.5 ng/mL) [4] | 1.34 | -3.62 | -7.2 | -3.96 | 7.46
NK-92 (IL-2 2.5 ng/mL) [9] | -11.6 | -17.5 | -5.85 | -7.63 | 3.77
NK-YS (IL-2 2.5 ng/mL) [5] | 1.57 | -2.53 | -4.74 | -3.26 | 12.7
NKL (IL-2 2.5 ng/mL) [12] | -4.89 | -6.45 | -9.35 | 8.52 | 51.3
SNK-6 (IL-2 2.5 ng/mL) [13] | -7.32 | 6.29 | -7.89 | 4 | 9.3
YT (IL-2 2.5 ng/mL) [10] | -3.67 | -6.22 | -3.85 | 0.11 | 14.3
[1] | 0.89 | -1.05 | 7.15 | 4.29 | 9.2
[3] | -4.41 | 4.97 | 9.83 | 16 | 26.1
[7] | 12.8 | 8.93 | 18.4 | 19.5 | 20.8
[11] | -5.64 | -7.78 | 3.47 | 3.5 | 14.1
[15] | -6.1 | -4.35 | -4.12 | -3.84 | 21

Conditions | drug sensitivity score
DERL-7 (IL-2 2.5 ng/mL) [21] | 1.33
IMC-1 (IL-2 20 ng/mL) [17] | 0
KAI3 (IL-2 2.5 ng/mL) [23] | 0.96
KHYG-1 (IL-2 2.5 ng/mL) [19] | 0
NK-92 (IL-2 2.5 ng/mL) [24] | 0
NK-YS (IL-2 2.5 ng/mL) [20] | 0.03
NKL (IL-2 2.5 ng/mL) [27] | 4.14
SNK-6 (IL-2 2.5 ng/mL) [28] | 0
YT (IL-2 2.5 ng/mL) [25] | 0.19
[14] | 0.49
[16] | 0
[18] | 2.96
[22] | 0
[26] | 0.34
